Laboratory results as given in patent US20240398828A1, “HETERO-ATOM CONTAINING COMPOUNDS AND USES THEREOF” (Kumquat Biosciences Inc., priority 2021, published 2024).

What was measured:
PTPN2 (i.e., TC-PTP) = biological target: T1, PTPN2 (i.e., TC-PTP) (Homo sapiens, UniProt P17706); experiment: Phosphatase activity assay (DiFMUP substrate), PTPN2; format: biochemical; conditions: compounds binned ≤1 uM or >1 uM
T1 sequence (P17706 1-415): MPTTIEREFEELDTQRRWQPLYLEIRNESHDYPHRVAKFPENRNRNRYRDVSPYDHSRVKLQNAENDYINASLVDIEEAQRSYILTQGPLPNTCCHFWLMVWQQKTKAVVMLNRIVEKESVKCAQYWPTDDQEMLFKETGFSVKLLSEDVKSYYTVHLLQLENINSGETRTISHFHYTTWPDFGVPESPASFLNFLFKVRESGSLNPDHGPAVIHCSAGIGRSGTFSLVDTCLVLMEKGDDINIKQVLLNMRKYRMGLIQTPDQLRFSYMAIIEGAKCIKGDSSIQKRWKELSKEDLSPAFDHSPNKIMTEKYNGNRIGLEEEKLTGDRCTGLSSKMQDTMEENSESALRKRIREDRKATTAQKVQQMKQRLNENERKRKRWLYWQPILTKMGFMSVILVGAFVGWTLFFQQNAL
Procedure: (§1) The selectivity and potency of a small molecule PTPN2 inhibitor as provided herein against one or more protein tyrosine phosphatase (PTP) enzymes, and specifically against PTPN2, is assessed in various ways. The one or more PTP enzymes comprise Mycobacterium protein tyrosine phosphatase A (mPTPA), Mycobacterium protein tyrosine phosphatase B (mPTPB), PTPN1 (i.e., PTP1B), PTPN2 (i.e., TC-PTP), PTPN22 (i.e., LYP), SHP-1, SHP-2, FAP-1, Meg2, HePTP, Laforin, VHX, VHR, LMWPTP, Cdc14A, LAR, CD45, PTPRG, a fragment thereof, a variant thereof, and a combination thereof. Selectivity and potency of a small molecule PTPN2 inhibitor is evaluated using a PTP activity inhibition assay. The assay is performed using a buffer comprising 50 mM HEPES buffer pH 7.5, 150 mM NaCl, 0.5 mM EDTA, 1 mM DTT, 0.001% Tween-20.
(§2) The assay is performed using a phosphated substrate, e.g., 10 mM 6,8-Difluoro-4-Methylumbelliferyl Phosphate (DIFMUP) that is stored at −20° C. Alternatively or in addition to, the assay is performed using other phosphated substrate (e.g., fluorescein diphosphate). Each PTP enzyme is diluted in the assay buffer
(§3) The assay can be carried out at room temperature in multiplate format, e.g., using 384 well plates. A small molecule PTPN2 inhibitor dissolved in DMSO at one of 10 concentrations from a serial dilution or DMSO alone for control is added to each well. A mixture of the assay buffer comprising PTP enzyme (e.g., 0.025 ng/ul PTPN2) is added to each well and mixed for approximately 2 minutes. The reaction is initiated by adding DiFMUP diluted in the assay buffer to a final concentration of approximately 45 μM DiFMUP in PTPN2 assay. For each PTP enzyme, DiFMUP is added at the Km (Michaelis constant) of the enzyme that had been independently determined. The phosphatase activity of the PTP enzyme is assessed by monitoring appearance of a fluorescent product (6,8-difluoro-7-hydroxyl-4-coumarin (DiFMU) from DiFMUP) continuously for about 15 to 30 minutes, using the INFINITE M1000Pro plate reader (Tecan) with excitation at 360 nm and emission at 450 nm (cutoff filter at 435 nm) for DiFMU. Each assay is performed at least in duplicate. The rate (e.g., the initial rate) of DiFMU formation is plotted against the concentration of the small molecule PTPN2 inhibitor, and the data is fitted (e.g., using a 4-parameter equation) to determine the inflection point of the fit as the IC50 of the small molecule PTPN2 inhibitor for a specific enzyme. Utilizing this assay, the ability of the compounds in Table 2 to inhibit PTPN2 and PTP1B has been assessed. Table 3 summarizes the IC50 values.

PTPN1 (i.e., PTP1B) = biological target: T2, PTPN1 (i.e., PTP1B) (Homo sapiens, UniProt P18031); experiment: Phosphatase activity assay (DiFMUP substrate), PTP1B; format: biochemical; conditions: compounds binned ≤1 uM or >1 uM
T2 sequence (P18031 1-435): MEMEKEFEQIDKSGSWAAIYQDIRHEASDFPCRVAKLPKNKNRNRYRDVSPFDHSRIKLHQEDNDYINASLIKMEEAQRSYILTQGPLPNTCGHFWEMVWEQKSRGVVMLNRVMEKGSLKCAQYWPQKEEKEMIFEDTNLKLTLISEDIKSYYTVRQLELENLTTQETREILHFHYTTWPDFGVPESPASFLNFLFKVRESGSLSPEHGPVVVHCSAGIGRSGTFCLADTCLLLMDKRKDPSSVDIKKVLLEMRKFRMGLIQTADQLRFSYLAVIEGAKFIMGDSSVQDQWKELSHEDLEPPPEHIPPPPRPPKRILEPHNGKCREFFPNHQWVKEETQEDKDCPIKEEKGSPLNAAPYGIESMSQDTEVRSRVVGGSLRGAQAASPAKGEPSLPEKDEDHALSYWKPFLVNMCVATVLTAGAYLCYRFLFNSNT
Procedure: as §1, §2, §3

SMILES	IC50 (PTPN2 (i.e., TC-PTP))	IC50 (PTPN1 (i.e., PTP1B))
CC(=O)N(C)C1CC=C(c2ccc(O)c(N3CC(=O)NS3(=O)=O)c2F)CC1 (stereo not drawn) [Compound 377, N-(3′-(1,1-dioxido-4-oxo-1,2,5-thiadiazolidin-2-yl)-2′-fluoro-4′-hydroxy-2,3,4,5-tetrahydro-[1,1′-biphenyl]-4-yl)-N-methylacetamide]	≤ 1 µM	≤ 1 µM
N#CCc1cc(-c2ccc(O)c(N3CC(=O)NS3(=O)=O)c2F)[nH]n1 [Compound 365, 2-(5-(3-(1,1-dioxido-4-oxo-1,2,5-thiadiazolidin-2-yl)-2-fluoro-4-hydroxyphenyl)-1H-pyrazol-3-yl)acetonitrile]	≤ 1 µM	≤ 1 µM
CS(=O)(=O)NC1CC=C(c2ccc(O)c(N3CC(=O)NS3(=O)=O)c2F)CC1 (stereo not drawn) [Compound 363, N-(3′-(1,1-dioxido-4-oxo-1,2,5-thiadiazolidin-2-yl)-2′-fluoro-4′-hydroxy-2,3,4,5-tetrahydro-[1,1′-biphenyl]-4-yl)methanesulfonamide]	≤ 1 µM	≤ 1 µM
O=C1CN(c2c(Cl)ccc(-c3cc(C4CC4)n[nH]3)c2F)S(=O)(=O)N1 [Compound 487, 5-(6-chloro-3-(3-cyclopropyl-1H-pyrazol-5-yl)-2-fluorophenyl)-1,2,5-thiadiazolidin-3-one 1,1-dioxide]	> 1 µM	≤ 1 µM
N#CC1(n2cc(-c3ccc(O)c(N4CC(=O)NS4(=O)=O)c3F)cn2)CC1 [Compound 484, 1-(4-(3-(1,1-dioxido-4-oxo-1,2,5-thiadiazolidin-2-yl)-2-fluoro-4-hydroxyphenyl)-1H-pyrazol-1-yl)cyclopropane-1-carbonitrile]	≤ 1 µM	≤ 1 µM
CC(F)(F)n1cc(-c2ccc(O)c(N3CC(=O)NS3(=O)=O)c2F)cn1 [Compound 516, 5-(3-(1-(1,1-difluoroethyl)-1H-pyrazol-4-yl)-2-fluoro-6-hydroxyphenyl)-1,2,5-thiadiazolidin-3-one 1,1-dioxide]	≤ 1 µM	≤ 1 µM
CCOc1ccc(-c2ccc(O)c(N3CC(=O)NS3(=O)=O)c2F)cn1 [Compound 226, 5-(3-(6-ethoxypyridin-3-yl)-2-fluoro-6-hydroxyphenyl)-1,2,5-thiadiazolidin-3-one 1,1-dioxide]	≤ 1 µM	≤ 1 µM
CN1CC2(CCC(n3cc(-c4ccc(O)c(N5CC(=O)NS5(=O)=O)c4F)cn3)C2)C1 (stereo not drawn) [Compound 442, 5-(2-fluoro-6-hydroxy-3-(1-(2-methyl-2-azaspiro[3.4]octan-6-yl)-1H-pyrazol-4-yl)phenyl)-1,2,5-thiadiazolidin-3-one 1,1-dioxide]	≤ 1 µM	≤ 1 µM
O=C1CN(c2c(O)ccc(-c3nnc(C4CC4)[nH]3)c2F)S(=O)(=O)N1 [Compound 235, 5-(3-(5-cyclopropyl-4H-1,2,4-triazol-3-yl)-2-fluoro-6-hydroxyphenyl)-1,2,5-thiadiazolidin-3-one 1,1-dioxide]	≤ 1 µM	≤ 1 µM
O=C1CN(c2c(O)ccc(-c3cn(CC4CCCCC4)nc3F)c2F)S(=O)(=O)N1 [Compound 385, 5-(3-(1-(cyclohexylmethyl)-3-fluoro-1H-pyrazol-4-yl)-2-fluoro-6-hydroxyphenyl)-1,2,5-thiadiazolidin-3-one 1,1-dioxide]	≤ 1 µM	≤ 1 µM
N#Cc1cc(Cn2cc(-c3ccc(O)c(N4CC(=O)NS4(=O)=O)c3F)cn2)ccc1F [Compound 169, 5-((4-(3-(1,1-dioxido-4-oxo-1,2,5-thiadiazolidin-2-yl)-2-fluoro-4-hydroxyphenyl)-1H-pyrazol-1-yl)methyl)-2-fluorobenzonitrile]	≤ 1 µM	≤ 1 µM
CCCN1CCCC(c2ccc(O)c(N3CC(=O)NS3(=O)=O)c2F)C1 (stereo not drawn) [Compound 276, 5-(2-fluoro-6-hydroxy-3-(1-propylpiperidin-3-yl)phenyl)-1,2,5-thiadiazolidin-3-one 1,1-dioxide]	> 1 µM	≤ 1 µM
O=C1CN(c2c(O)ccc(C3CCC(NS(=O)(=O)C4CC4)CC3)c2F)S(=O)(=O)N1 (stereo not drawn) [Compound 450, N-(4-(3-(1,1-dioxido-4-oxo-1,2,5-thiadiazolidin-2-yl)-2-fluoro-4-hydroxyphenyl)cyclohexyl)cyclopropanesulfonamide]	≤ 1 µM	≤ 1 µM
CN(C)C1(Cn2cc(-c3ccc(O)c(N4CC(=O)NS4(=O)=O)c3F)cn2)CCC1 [Compound 430, 5-(3-(1-((1-(dimethylamino)cyclobutyl)methyl)-1H-pyrazol-4-yl)-2-fluoro-6-hydroxyphenyl)-1,2,5-thiadiazolidin-3-one 1,1-dioxide]	≤ 1 µM	≤ 1 µM
CC(C)CCN1CC=C(c2ccc(O)c(N3CC(=O)NS3(=O)=O)c2F)C1 [Compound 544, 5-(2-fluoro-6-hydroxy-3-(1-isopentyl-2,5-dihydro-1H-pyrrol-3-yl)phenyl)-1,2,5-thiadiazolidin-3-one 1,1-dioxide]	≤ 1 µM	≤ 1 µM
O=C1CN(c2c(O)ccc(-c3cnn(Cc4ccncc4)c3)c2F)S(=O)(=O)N1 [Compound 174, 5-(2-fluoro-6-hydroxy-3-(1-(pyridin-4-ylmethyl)-1H-pyrazol-4-yl)phenyl)-1,2,5-thiadiazolidin-3-one 1,1-dioxide]	≤ 1 µM	≤ 1 µM
CC(C)CCOC1CCCN(c2cc(O)c(N3CC(=O)NS3(=O)=O)c(F)c2)C1 (stereo not drawn) [Compound 201, 5-(2-fluoro-6-hydroxy-4-(3-(isopentyloxy)piperidin-1-yl)phenyl)-1,2,5-thiadiazolidin-3-one 1,1-dioxide]	≤ 1 µM	≤ 1 µM
Cc1cc(O)c(N2CC(=O)NS2(=O)=O)cc1-c1cnn(C)c1 [Compound 358, 5-(2-hydroxy-4-methyl-5-(1-methyl-1H-pyrazol-4-yl)phenyl)-1,2,5-thiadiazolidin-3-one 1,1-dioxide]	> 1 µM	> 1 µM
N#Cc1cccc(Cn2cc(-c3ccc(O)c(N4CC(=O)NS4(=O)=O)c3F)cn2)c1 [Compound 161, 3-((4-(3-(1,1-dioxido-4-oxo-1,2,5-thiadiazolidin-2-yl)-2-fluoro-4-hydroxyphenyl)-1H-pyrazol-1-yl)methyl)benzonitrile]	≤ 1 µM	≤ 1 µM
CCCCNc1ccc(-c2ccc(O)c(N3CC(=O)NS3(=O)=O)c2F)cn1 [Compound 215, 5-(3-(6-(butylamino)pyridin-3-yl)-2-fluoro-6-hydroxyphenyl)-1,2,5-thiadiazolidin-3-one 1,1-dioxide]	≤ 1 µM	≤ 1 µM
O=C1CN(c2c(O)ccc(-c3cc(C4=CCOCC4)n[nH]3)c2F)S(=O)(=O)N1 [Compound 402, 5-(3-(3-(3,6-dihydro-2H-pyran-4-yl)-1H-pyrazol-5-yl)-2-fluoro-6-hydroxyphenyl)-1,2,5-thiadiazolidin-3-one 1,1-dioxide]	≤ 1 µM	≤ 1 µM
